Measurements from article PMC4457528, “Identification of Novel Small Molecule Inhibitors of Oncogenic RET Kinase” (PLoS ONE, 2015).
Where two headings read alike, the source gives them in different places.

How the values were obtained:
Experiment in all cases: KinomeScan kinase panel, single concentration 10 µM
Assay type in all cases: binding
KinomeScan kinase panel [1] = target: T1, KinomeScan kinase panel (Homo sapiens, UniProt O14965); conditions: AURKA, 10 µM; read-out: score (%)
T1 construct: purchased DiscoveRx (KinomeScan)
T1 sequence (O14965 1-403): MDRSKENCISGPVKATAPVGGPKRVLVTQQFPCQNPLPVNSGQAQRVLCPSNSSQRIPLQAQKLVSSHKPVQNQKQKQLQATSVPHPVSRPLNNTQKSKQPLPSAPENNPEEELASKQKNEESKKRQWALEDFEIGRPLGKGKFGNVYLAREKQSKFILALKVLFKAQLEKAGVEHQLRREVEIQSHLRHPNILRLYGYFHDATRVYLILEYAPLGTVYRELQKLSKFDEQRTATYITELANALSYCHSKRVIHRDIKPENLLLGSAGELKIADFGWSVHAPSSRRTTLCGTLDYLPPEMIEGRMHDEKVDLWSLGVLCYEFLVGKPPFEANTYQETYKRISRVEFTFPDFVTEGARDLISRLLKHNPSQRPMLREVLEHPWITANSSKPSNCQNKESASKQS

KinomeScan kinase panel [2] = target: T2, KinomeScan kinase panel (Homo sapiens, UniProt O43293); conditions: DAPK3, 10 µM; read-out: score (%)
T2 construct: purchased DiscoveRx (KinomeScan)

KinomeScan kinase panel [3] = target: T3, KinomeScan kinase panel (Homo sapiens, UniProt P00533); conditions: EGFR, 10 µM
T3 construct: purchased DiscoveRx (KinomeScan)

KinomeScan kinase panel [4] = target: T4, KinomeScan kinase panel (Homo sapiens, UniProt P07949, M918T); conditions: read-out: score (%)
T4 construct: purchased DiscoveRx (KinomeScan)

KinomeScan kinase panel [5] = target: T5, KinomeScan kinase panel (Homo sapiens, UniProt P31749); conditions: AKT1, 10 µM; read-out: score (%)
T5 construct: purchased DiscoveRx (KinomeScan)

KinomeScan kinase panel [6] = target: T6, KinomeScan kinase panel (Homo sapiens, UniProt P36894); conditions: BMPR1A, 10 µM; read-out: score (%)
T6 construct: purchased DiscoveRx (KinomeScan)

KinomeScan kinase panel [7] = target: T7, KinomeScan kinase panel (Homo sapiens, UniProt P80192); conditions: MLK1, 10 µM; read-out: score (%)
T7 construct: purchased DiscoveRx (KinomeScan)

KinomeScan kinase panel [8] = target: T8, KinomeScan kinase panel (Homo sapiens, UniProt Q15418); conditions: 10 µM, read-out: score (%)
T8 construct: purchased DiscoveRx (KinomeScan)

KinomeScan kinase panel [9] = target: T9, KinomeScan kinase panel (Homo sapiens, UniProt Q15831); conditions: LKB1, 10 µM; read-out: score (%)
T9 construct: purchased DiscoveRx (KinomeScan)
T9 sequence (Q15831 1-433): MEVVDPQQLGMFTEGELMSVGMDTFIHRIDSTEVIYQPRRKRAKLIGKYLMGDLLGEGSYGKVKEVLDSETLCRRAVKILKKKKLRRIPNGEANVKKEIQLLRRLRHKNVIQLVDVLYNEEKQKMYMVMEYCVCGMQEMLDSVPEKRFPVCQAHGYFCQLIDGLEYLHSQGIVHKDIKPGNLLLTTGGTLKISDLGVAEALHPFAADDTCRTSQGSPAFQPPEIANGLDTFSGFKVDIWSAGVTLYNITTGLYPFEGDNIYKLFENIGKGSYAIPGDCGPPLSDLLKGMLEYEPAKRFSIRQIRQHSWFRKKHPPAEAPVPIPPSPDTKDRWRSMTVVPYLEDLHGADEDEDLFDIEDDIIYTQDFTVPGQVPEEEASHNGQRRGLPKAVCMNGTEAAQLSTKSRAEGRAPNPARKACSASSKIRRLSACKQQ

KinomeScan kinase panel [10] = target: T10, KinomeScan kinase panel (Homo sapiens, UniProt Q6P3R8); conditions: NEK5, 10 µM; read-out: score (%)
T10 construct: purchased DiscoveRx (KinomeScan)
T10 sequence (Q6P3R8 1-708): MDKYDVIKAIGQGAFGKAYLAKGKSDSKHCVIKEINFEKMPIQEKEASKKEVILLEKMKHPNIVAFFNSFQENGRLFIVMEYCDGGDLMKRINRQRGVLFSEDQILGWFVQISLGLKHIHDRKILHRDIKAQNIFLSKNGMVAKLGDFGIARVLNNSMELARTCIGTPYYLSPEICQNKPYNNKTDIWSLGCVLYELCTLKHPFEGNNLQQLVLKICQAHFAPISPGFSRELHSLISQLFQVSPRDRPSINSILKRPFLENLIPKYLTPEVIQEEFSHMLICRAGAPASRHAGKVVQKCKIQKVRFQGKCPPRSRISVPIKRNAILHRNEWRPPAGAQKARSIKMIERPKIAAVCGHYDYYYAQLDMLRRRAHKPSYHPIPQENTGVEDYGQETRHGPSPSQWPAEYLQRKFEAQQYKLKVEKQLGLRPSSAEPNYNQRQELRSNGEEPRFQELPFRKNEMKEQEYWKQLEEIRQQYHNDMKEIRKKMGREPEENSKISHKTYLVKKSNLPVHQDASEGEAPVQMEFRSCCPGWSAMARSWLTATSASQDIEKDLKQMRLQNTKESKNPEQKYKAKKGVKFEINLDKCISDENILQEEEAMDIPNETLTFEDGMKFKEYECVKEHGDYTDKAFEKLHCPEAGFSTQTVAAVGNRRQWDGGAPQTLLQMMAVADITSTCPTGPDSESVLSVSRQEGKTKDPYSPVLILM

KinomeScan kinase panel [11] = target: T11, KinomeScan kinase panel (Homo sapiens, UniProt Q86UX6); conditions: kinase YANK3; 10 µM; read-out: score (%)
T11 construct: purchased DiscoveRx (KinomeScan)

KinomeScan kinase panel [12] = target: T12, KinomeScan kinase panel (Homo sapiens, UniProt Q96GD4); conditions: AURKB, 10 µM; read-out: score (%)
T12 construct: purchased DiscoveRx (KinomeScan)

KinomeScan kinase panel [13] = target: T13, KinomeScan kinase panel (Homo sapiens, UniProt Q9BYT3); conditions: read-out: score (%)
T13 construct: purchased DiscoveRx (KinomeScan)

KinomeScan kinase panel [14] = target: T14, KinomeScan kinase panel (Homo sapiens, UniProt Q9Y6R4); conditions: MAP3K4, 10 µM; read-out: score (%)
T14 construct: purchased DiscoveRx (KinomeScan)

T6 sequence (P36894 24-532): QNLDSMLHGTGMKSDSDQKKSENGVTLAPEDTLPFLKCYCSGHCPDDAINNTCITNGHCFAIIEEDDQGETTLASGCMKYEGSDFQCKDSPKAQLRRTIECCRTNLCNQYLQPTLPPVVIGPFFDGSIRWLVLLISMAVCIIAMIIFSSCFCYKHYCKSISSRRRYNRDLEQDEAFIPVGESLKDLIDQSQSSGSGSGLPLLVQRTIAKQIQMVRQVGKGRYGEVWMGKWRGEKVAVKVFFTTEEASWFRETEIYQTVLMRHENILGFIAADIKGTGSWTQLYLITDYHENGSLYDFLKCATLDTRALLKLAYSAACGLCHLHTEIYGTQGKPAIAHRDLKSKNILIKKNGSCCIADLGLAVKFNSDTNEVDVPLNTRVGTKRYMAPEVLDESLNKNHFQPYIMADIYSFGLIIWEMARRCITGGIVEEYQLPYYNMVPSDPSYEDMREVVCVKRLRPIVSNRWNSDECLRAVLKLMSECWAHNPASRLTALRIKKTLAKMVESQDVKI
T12 sequence (Q96GD4 whole entry): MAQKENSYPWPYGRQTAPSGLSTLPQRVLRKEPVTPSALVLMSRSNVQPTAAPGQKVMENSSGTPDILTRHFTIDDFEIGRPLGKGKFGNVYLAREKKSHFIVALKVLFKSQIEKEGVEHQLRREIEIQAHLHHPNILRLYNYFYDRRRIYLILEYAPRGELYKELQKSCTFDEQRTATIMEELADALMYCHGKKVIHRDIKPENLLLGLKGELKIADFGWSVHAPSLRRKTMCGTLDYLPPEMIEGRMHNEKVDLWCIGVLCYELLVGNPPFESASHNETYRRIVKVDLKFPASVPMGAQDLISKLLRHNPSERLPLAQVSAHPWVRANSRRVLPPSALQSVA
T8 sequence (Q15418 whole entry): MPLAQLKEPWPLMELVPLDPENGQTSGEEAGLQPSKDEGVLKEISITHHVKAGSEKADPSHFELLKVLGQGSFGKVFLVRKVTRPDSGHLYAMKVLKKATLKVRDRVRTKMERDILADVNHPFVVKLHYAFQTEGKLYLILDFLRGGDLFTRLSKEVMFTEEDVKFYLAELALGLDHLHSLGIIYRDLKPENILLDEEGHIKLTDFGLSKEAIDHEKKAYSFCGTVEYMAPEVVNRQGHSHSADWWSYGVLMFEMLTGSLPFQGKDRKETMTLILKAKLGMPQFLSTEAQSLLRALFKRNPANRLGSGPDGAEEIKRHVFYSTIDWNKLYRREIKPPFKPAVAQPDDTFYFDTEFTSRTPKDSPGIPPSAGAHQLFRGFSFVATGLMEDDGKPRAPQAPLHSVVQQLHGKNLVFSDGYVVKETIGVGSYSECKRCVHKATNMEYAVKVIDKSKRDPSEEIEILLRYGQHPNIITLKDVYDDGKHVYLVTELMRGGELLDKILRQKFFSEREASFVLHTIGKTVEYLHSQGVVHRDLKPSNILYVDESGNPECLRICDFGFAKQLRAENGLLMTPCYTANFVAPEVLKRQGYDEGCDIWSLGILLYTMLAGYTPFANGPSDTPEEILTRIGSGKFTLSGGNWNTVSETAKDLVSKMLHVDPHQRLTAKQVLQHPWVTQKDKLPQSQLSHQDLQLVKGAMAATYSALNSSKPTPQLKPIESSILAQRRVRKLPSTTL
T7 sequence (P80192 whole entry): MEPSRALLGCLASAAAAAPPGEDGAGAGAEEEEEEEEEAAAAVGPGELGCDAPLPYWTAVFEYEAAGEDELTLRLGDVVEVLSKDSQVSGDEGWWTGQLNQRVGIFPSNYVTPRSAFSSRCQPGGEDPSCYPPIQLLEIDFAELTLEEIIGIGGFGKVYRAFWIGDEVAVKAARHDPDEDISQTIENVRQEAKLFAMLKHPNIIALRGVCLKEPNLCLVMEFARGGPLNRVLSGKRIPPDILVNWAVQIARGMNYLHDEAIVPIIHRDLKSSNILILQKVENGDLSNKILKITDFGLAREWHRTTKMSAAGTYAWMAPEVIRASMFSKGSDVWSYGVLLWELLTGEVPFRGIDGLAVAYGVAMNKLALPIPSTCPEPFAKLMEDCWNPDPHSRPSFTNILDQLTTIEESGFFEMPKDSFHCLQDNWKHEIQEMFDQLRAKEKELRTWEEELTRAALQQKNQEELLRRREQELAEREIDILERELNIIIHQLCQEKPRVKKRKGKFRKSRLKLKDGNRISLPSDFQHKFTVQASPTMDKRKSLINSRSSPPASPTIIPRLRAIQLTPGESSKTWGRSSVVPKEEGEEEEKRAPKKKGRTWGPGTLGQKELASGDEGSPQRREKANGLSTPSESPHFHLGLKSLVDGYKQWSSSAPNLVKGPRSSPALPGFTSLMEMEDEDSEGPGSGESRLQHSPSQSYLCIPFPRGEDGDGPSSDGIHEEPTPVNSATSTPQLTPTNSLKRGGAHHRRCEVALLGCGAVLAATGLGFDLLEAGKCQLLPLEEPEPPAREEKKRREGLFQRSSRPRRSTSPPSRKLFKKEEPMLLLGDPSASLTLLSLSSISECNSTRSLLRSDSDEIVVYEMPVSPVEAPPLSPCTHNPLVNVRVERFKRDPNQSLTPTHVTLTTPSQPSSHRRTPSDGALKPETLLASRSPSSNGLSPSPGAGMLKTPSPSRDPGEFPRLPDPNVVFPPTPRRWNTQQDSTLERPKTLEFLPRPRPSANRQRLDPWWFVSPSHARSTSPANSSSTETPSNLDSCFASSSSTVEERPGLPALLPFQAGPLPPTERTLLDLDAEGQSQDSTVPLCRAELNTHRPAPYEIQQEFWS
T13 sequence (Q9BYT3 whole entry): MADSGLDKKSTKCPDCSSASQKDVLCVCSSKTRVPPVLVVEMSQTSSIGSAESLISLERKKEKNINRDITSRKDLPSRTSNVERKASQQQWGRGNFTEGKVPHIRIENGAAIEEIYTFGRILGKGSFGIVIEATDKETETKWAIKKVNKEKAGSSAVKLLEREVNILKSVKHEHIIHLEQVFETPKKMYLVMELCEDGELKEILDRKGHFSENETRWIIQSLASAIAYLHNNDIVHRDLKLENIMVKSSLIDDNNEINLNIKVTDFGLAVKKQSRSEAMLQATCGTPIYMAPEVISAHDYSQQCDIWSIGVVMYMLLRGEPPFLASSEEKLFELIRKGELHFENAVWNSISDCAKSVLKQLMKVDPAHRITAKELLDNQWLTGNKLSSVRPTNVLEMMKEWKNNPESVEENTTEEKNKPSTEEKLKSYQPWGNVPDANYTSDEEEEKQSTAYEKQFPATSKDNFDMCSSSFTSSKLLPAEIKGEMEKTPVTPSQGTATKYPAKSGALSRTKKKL
T5 sequence (P31749 whole entry): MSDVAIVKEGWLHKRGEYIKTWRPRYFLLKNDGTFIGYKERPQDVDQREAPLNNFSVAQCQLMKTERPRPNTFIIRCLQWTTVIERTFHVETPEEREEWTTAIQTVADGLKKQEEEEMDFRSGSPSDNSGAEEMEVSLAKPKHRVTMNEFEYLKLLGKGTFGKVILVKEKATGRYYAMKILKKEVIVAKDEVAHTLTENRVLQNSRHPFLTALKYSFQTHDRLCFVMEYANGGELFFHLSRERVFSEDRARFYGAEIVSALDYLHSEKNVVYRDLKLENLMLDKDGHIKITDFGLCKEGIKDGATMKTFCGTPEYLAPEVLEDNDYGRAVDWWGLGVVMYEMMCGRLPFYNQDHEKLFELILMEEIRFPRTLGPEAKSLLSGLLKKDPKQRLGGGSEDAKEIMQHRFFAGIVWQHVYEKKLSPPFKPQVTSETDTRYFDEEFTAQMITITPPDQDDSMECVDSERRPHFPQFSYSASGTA
T4 sequence (P07949 29-1114 M918T): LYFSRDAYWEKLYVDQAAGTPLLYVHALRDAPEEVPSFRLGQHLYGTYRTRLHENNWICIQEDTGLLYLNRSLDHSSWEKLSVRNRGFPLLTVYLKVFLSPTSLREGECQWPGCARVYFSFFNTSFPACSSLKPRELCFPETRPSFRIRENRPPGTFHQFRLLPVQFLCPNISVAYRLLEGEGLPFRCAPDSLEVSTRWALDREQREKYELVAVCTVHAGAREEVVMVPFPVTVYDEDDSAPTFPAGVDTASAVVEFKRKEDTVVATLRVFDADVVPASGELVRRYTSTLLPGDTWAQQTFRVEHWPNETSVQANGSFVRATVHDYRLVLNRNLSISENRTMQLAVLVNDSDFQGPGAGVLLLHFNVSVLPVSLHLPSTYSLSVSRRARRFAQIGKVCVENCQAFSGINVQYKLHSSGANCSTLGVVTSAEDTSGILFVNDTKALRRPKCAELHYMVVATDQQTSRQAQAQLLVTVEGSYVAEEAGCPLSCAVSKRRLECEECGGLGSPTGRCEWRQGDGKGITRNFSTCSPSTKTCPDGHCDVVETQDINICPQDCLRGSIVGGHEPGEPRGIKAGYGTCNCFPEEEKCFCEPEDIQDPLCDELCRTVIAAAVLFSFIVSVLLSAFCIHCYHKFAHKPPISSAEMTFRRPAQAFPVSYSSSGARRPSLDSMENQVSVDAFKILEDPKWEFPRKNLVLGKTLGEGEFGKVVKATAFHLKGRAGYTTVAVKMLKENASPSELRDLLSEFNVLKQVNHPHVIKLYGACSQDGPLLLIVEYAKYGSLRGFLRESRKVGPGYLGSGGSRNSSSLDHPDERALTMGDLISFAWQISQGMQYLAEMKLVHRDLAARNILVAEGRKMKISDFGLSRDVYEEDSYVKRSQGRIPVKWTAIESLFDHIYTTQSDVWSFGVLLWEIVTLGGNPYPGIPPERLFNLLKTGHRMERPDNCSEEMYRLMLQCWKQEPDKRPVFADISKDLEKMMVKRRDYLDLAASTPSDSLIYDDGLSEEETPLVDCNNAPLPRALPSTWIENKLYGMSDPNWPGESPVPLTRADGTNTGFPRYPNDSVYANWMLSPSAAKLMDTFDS

Compound	remaining binding at 10 µM (KinomeScan kinase panel [1])	remaining binding at 10 µM (KinomeScan kinase panel [2])	score (%) (KinomeScan kinase panel [3])	remaining binding at 10 µM (KinomeScan kinase panel [5])	remaining binding at 10 µM (KinomeScan kinase panel [6])	remaining binding at 10 µM (KinomeScan kinase panel [7])	remaining binding at 10 µM (KinomeScan kinase panel [9])	remaining binding at 10 µM (KinomeScan kinase panel [10])	remaining binding at 10 µM (KinomeScan kinase panel [11])	remaining binding at 10 µM (KinomeScan kinase panel [12])	remaining binding at 10 µM (KinomeScan kinase panel [13]; kinase STK33, 10 µM)	remaining binding at 10 µM (KinomeScan kinase panel [14])	further results
CCN1CCN(Cc2ccc(NC(=O)c3ccc(C)c(NC(=O)c4cncc(-c5cccs5)c4)c3)cc2C(F)(F)F)CC1 [ALW-II-41-27]	> 30%	> 30%	1.3%	4.4%	> 30%	> 30%	> 30%	> 30%	> 30%	> 30%	> 30%	> 30%	remaining binding at 10 µM (KinomeScan kinase panel [4]): 0%; remaining binding at 10 µM (KinomeScan kinase panel [8]; RPS6KA1(Kin.Dom.1-N-terminal)): > 30%; remaining binding at 10 µM (KinomeScan kinase panel [8]; RPS6KA1(Kin.Dom.2-C-terminal)): > 30%
CCN1CCN(Cc2ccc(NC(=O)c3ccc(C)c(C#Cc4cccnc4)c3)cc2C(F)(F)F)CC1 [XMD15-44]	> 30%	> 30%	3%	> 30%	> 30%	> 30%	> 30%	4.8%	75%	24%	14%	> 30%	remaining binding at 10 µM (KinomeScan kinase panel [4]; kinase RET(M918T), 10 µM): 0%; remaining binding at 10 µM (KinomeScan kinase panel [8]; kinase RSK1(Kin.Dom.1-N-terminal)): 53%; remaining binding at 10 µM (KinomeScan kinase panel [8]; kinase RSK1(Kin.Dom.2-C-terminal)): 7.2%
CCN1CCN(Cc2ccc(NC(=O)c3ccc(C)c(/C=C/c4cnc5[nH]ccc5c4Cl)c3)cc2C(F)(F)F)CC1 [HG-6-63-01, (E)-3-(2-(4-chloro-1H-pyrrolo[2,3-b]pyridin-5-yl)vinyl)-N-(4-((4-ethylpiperazin-1-yl)methyl)-3-(trifluoromethyl)phenyl)-4-methylbenzamide]	24%	> 30%	0.3%	> 30%	> 30%	0.6%	29%	7%	> 30%	6.6%		> 30%	remaining binding at 10 µM (KinomeScan kinase panel [4]; RET(M918T), 10 µM): 0%; remaining binding at 10 µM (KinomeScan kinase panel [8]; RPS6KA1(Kin.Dom.1)): > 30%; remaining binding at 10 µM (KinomeScan kinase panel [8]; RPS6KA1(Kin.Dom.2)): > 30%; remaining binding at 10 µM (KinomeScan kinase panel [13]; STK33, 10 µM): 23%
